Data published in patent publication US9464084B2, “P2X7 modulators” (Janssen Pharmaceutica NV, priority 2013, dated 2016).

What was measured:
Format in all cases: cell-based
[1] = target: T1, P2X7 (Homo sapiens (Human), UniProt Q99572); assay: Ca2+ flux (FLIPR) in 1321N1 cells expressing recombinant human P2X7 channel; conditions: 250 μM BzATP;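 also: Calcium-4 dye-loaded cells exposed to compound for 30 min before agonist addition, fluorescence change read 180 s after agonist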
Experimental: Cells were seeded at a density of 25000 cells/well (96-well clear bottom black walled plates) in 100 μl volume/well. On the day of the experiment, cell plates were washed with assay buffer, containing (in mM): 130 NaCl, 2 KCl, 1 CaCl2, 1 MgCl2, 10 HEPES, 5 glucose; pH 7.40 and 300 mOs. After the wash, cells were loaded with the Calcium-4 dye (Molecular Device) and incubated in the dark for 60 minutes. Test compounds were prepared at 250× the test concentration in neat DMSO. Intermediate 96-well compound plates were prepared by transferring 1.2 μL of the compound into 300 μL of assay buffer. A further 3× dilution occurred when transferring 50 μL/well of the compound plate to 100 μL/well in the cell plate. Cells were incubated with test compounds and dye for 30 minutes. […] The fluorescence change was measured 180 seconds after adding the agonist.

[2] = target: T1, P2X7; assay: P2X7 antagonism in human PBMCs (LPS + Bz-ATP induced IL-1β release, ELISA); conditions: LPS 30 ng/ml, Bz-ATP 0.5 mM; for PBMC 10 μM (% control): compound 10 μM; for PBMC 1 μM (% control): compound 1 μM;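 as to all read-outs here: PBMCs from donor human blood, with a further 1.5 h incubation of the cells in the assay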
[3] = target: rat P2X7 (Rattus norvegicus (Rat), UniProt Q64663); assay: Ca2+ flux (FLIPR) in 1321N1 cells expressing recombinant rat P2X7 channel; conditions: 250 μM BzATP;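 also: Calcium-4 dye fluorescence change read 180 s after agonist addition, following 30 min cell preincubation with test compound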
rat P2X7, sequence (Q64663 whole entry): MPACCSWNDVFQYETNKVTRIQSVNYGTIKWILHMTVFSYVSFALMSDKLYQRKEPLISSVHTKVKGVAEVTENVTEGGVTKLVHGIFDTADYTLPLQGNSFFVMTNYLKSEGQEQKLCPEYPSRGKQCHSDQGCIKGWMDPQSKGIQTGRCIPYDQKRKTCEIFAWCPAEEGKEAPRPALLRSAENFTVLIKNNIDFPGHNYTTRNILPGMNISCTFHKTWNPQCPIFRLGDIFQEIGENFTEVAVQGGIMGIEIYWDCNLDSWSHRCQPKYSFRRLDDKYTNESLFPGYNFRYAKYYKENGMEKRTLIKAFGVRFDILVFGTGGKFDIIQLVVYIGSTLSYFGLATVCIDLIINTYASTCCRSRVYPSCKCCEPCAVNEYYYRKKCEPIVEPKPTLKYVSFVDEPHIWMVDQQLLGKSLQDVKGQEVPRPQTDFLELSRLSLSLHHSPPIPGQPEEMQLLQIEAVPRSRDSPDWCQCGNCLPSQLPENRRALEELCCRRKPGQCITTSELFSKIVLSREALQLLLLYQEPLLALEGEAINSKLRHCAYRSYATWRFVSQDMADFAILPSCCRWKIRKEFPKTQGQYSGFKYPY

T1 sequence (Q99572 whole entry): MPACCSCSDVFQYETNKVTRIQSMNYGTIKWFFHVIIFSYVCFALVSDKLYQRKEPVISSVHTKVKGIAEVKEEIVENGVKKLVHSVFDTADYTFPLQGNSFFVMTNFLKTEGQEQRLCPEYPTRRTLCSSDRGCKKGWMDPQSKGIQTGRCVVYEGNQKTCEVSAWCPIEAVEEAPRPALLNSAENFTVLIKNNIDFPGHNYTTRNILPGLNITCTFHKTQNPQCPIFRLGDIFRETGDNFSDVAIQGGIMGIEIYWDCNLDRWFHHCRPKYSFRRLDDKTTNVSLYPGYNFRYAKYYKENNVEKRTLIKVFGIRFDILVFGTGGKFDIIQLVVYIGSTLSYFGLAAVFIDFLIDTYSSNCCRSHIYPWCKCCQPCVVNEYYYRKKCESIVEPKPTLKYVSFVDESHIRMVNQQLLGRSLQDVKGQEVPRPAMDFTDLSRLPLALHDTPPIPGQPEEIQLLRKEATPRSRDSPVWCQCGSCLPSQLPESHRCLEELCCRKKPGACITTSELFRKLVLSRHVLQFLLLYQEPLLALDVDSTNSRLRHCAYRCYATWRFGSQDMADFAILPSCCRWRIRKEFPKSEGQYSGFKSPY

Structure (SMILES) | IC50 [1] [nM] | PBMC 10 μM (% control) [2] [% control] | IC50 [3] [nM] | PBMC 1 μM (% control) [2] [% control]
CC1c2nnn(-c3ccc(F)cn3)c2CCN1C(=O)c1cccc(C(F)(F)F)c1Cl (stereo not drawn) [Example 71, 5-{[2-Chloro-3-(trifluoromethyl)phenyl]carbonyl}-1-(5-fluoropyridin-2-yl)-4-methyl-4,5,6,7-tetrahydro-1H-[1,2,3]triazolo[4,5-c]pyridine] | 49 | 11.1 | 397 | –
CC1c2[nH]nc(C(F)(F)F)c2CCN1C(=O)c1cccc(C(F)(F)F)c1Cl (stereo not drawn) [Example 308, (2-chloro-3-(trifluoromethyl)phenyl)(7-methyl-3-(trifluoromethyl)-4,5-dihydro-1H-pyrazolo[3,4-c]pyridin-6(7H)-yl)methanone] | > 10000 | 22.9 | > 10000 | –
Cc1cnc(-n2nnc3c2CCN(C(=O)c2cccc(Cl)c2Cl)C3C)c(C)c1 (stereo not drawn) [Example 160, (2,3-dichlorophenyl)(1-(3,5-dimethylpyridin-2-yl)-4-methyl-6,7-dihydro-1H-[1,2,3]triazolo[4,5-c]pyridin-5(4H)-yl)methanone] | > 10000 | 101.5 | > 10000 | –
C[C@@H]1c2nnn(-c3cccc(F)n3)c2CCN1C(=O)c1cccc(C(F)(F)F)c1Cl (single isomer, unassigned) [Example 146, (R*)-(2-chloro-3-(trifluoromethyl)phenyl)(1-(6-fluoropyridin-2-yl)-4-methyl-6,7-dihydro-1H-[1,2,3]triazolo[4,5-c]pyridin-5(4H)-yl)methanone] | 2700 | 30.9 | > 10000 | –
C[C@H]1Cc2c(nnn2-c2ncc(F)cn2)CN1C(=O)c1ccc(Cl)cc1F [Example 156, (S)-(4-chloro-2-fluorophenyl)(1-(5-fluoropyrimidin-2-yl)-6-methyl-6,7-dihydro-1H-[1,2,3]triazolo[4,5-c]pyridin-5(4H)-yl)methanone] | 14.4 | 1.8 | 604 | –
CCc1cccnc1-n1nnc2c1CCN(C(=O)c1cccc(C(F)(F)F)c1)C2C (stereo not drawn) [Example 295, (1-(3-ethylpyridin-2-yl)-4-methyl-6,7-dihydro-1H-[1,2,3]triazolo[4,5-c]pyridin-5(4H)-yl)(3-(trifluoromethyl)phenyl)methanone] | > 10000 | 10.1 | > 10000 | –
COc1ccccc1-n1nnc2c1CCN(C(=O)c1cccc(C(F)(F)F)c1Cl)C2 [Example 125, (2-Chloro-3-(trifluoromethyl)phenyl)(1-(2-methoxyphenyl)-6,7-dihydro-1H-[1,2,3]triazolo[4,5-c]pyridin-5(4H)-yl)methanone] | 158 | – | 1260 | 83.4
Cn1nc(-c2ccc(F)cc2)c2c1CN(C(=O)c1cccc(C(F)(F)F)c1Cl)CC2 [Example 106, 6-{[2-Chloro-3-(trifluoromethyl)phenyl]carbonyl}-3-(4-fluorophenyl)-1-methyl-4,5,6,7-tetrahydro-1H-pyrazolo[3,4-c]pyridine] | 158 | – | 1580 | 64.4
O=C(c1cccc(C(F)(F)F)c1F)N1CCc2c(ncn2-c2ccc(F)cn2)C1 [Example 314, (2-fluoro-3-(trifluoromethyl)phenyl)(1-(5-fluoropyridin-2-yl)-6,7-dihydro-1H-imidazo[4,5-c]pyridin-5(4H)-yl)methanone] | 2830 | 18.7 | > 10000 | –
CC1c2nnn(-c3cncnc3)c2CCN1C(=O)c1cccc(C(F)(F)F)c1Cl (stereo not drawn) [Example 177, (2-Chloro-3-(trifluoromethyl)phenyl)(4-methyl-1-(pyrimidin-5-yl)-6,7-dihydro-1H-[1,2,3]triazolo[4,5-c]pyridin-5(4H)-yl)methanone] | 227 | 8.6 | > 10000 | –
C[C@@H]1c2nnn(-c3cncnc3)c2CCN1C(=O)c1cccc(C(F)(F)F)c1Cl (single isomer, unassigned) [Example 334, (R*)-(2-chloro-3-(trifluoromethyl)phenyl)(4-methyl-1-(pyrimidin-5-yl)-6,7-dihydro-1H-[1,2,3]triazolo[4,5-c]pyridin-5(4H)-yl)methanone] | > 10000 | 101.8 | > 10000 | –
O=C(c1cccc(Cl)c1Cl)N1CCc2c(-c3ccc(F)cc3)n[nH]c2C1 [Example 114, 6-[(2,3-Dichlorophenyl)carbonyl]-3-(4-fluorophenyl)-4,5,6,7-tetrahydro-2H-pyrazolo[3,4-c]pyridine] | 63.1 | – | 1260 | 20.4
Cc1nc2c(n1-c1ccccc1)CCN(C(=O)c1cccc(C(F)(F)F)c1Cl)C2 [Example 37, (2-Chloro-3-(trifluoromethyl)phenyl)(2-methyl-1-phenyl-6,7-dihydro-1H-imidazo[4,5-c]pyridin-5(4H)-yl)methanone] | 99.3 | −9.1 | 1530 | –
CC1c2nn(COCC[Si](C)(C)C)c(-c3ncc(F)cn3)c2CCN1C(=O)c1cccc(C(F)(F)F)c1Cl (stereo not drawn) [Example 303, (2-chloro-3-(trifluoromethyl)phenyl)(3-(5-fluoropyrimidin-2-yl)-7-methyl-2-((2-(trimethylsilyl)ethoxy)methyl)-4,5-dihydro-2H-pyrazolo[3,4-c]pyridin-6(7H)-yl)methanone] | 6920 | −1.6 | 5190 | –
Cc1c(C(=O)N2Cc3nnn(-c4cc[nH]n4)c3CC2C)cccc1C(F)(F)F (stereo not drawn) [Example 154, (6-methyl-1-(1H-pyrazol-3-yl)-6,7-dihydro-1H-[1,2,3]triazolo[4,5-c]pyridin-5(4H)-yl)(2-methyl-3-(trifluoromethyl)phenyl)methanone] | 16.5 | −0.6 | 10.2 | –
CC1Cc2c(-c3ccn[nH]3)n[nH]c2CN1C(=O)c1ccc(Cl)cc1Cl (stereo not drawn) [Example 268, (2,4-dichlorophenyl)(5-methyl-3-(1H-pyrazol-5-yl)-4,5-dihydro-1H-pyrazolo[3,4-c]pyridin-6(7H)-yl)methanone] | 600 | −59.9 | 1220 | –
O=C(c1ccc(Cl)cc1F)N1CCc2c(nnn2-c2ccccn2)C1 [Example 129, (4-Chloro-2-fluorophenyl)(1-(pyridin-2-yl)-6,7-dihydro-1H-[1,2,3]triazolo[4,5-c]pyridin-5(4H)-yl)methanone] | 366 | 8.4 | 3350 | –
C[C@@H]1Cc2c(nnn2-c2ncccn2)CN1C(=O)c1cccc(C(F)(F)F)c1Cl (single isomer, unassigned) [Example 221, (6R*)-5-{[2-Chloro-3-(trifluoromethyl)phenyl]carbonyl}-6-methyl-1-pyrimidin-2-yl-4,5,6,7-tetrahydro-1H-[1,2,3]triazolo[4,5-c]pyridine] | 506 | 17.8 | 6680 | –
CCOC(=O)C1c2ncn(-c3cnccn3)c2CCN1C(=O)c1cccc(C(F)(F)F)c1Cl (stereo not drawn) [Example 28, Ethyl 5-{[2-chloro-3-(trifluoromethyl)phenyl]carbonyl}-1-pyrazin-2-yl-4,5,6,7-tetrahydro-1H-imidazo[4,5-c]pyridine-4-carboxylate] | 13.8 | – | 16.5 | 4.8
